In EP0658342A1, “Antineoplastic pharmaceutical composition containing a fumagillol derivative” (Takeda Chemical Industries, Ltd., priority 1993, dated 1995):

Test system: Hormone-independent human prostatic cancer PC-3 strain cells
Test: Tumor growth inhibitory activity against subcutaneously transplanted PC-3 tumors in Balb/c nu/nu mice (Experiments 1 and 2)
Assay type: in vivo
Conditions: one-week intervals from 17th day; for Tumor size gain (mm³) mean±SD: Experiment 1, s.c. PC-3, Compound A 100 mg/kg s.c. (maltosyl-β-cyclodextrin inclusion compound), gain over size at first administration; for Tumor size ratio (T/C %): treated vs control group; for Tumor size gain (mm³) means±SD: Experiment 2, s.c. PC-3, Compound A 100 mg/kg s.c. (maltosyl-β-cyclodextrin inclusion compound)
Description: Hormone-independent human prostatic cancer PC-3 strain cells (hereinafter abbreviated as PC-3 cells) subcultured in vitro using a petri dish for tissue culture were removed from the dish wall by using 0.25% trypsin. The cells thus obtained were rinsed with Ham F-12K medium containing 10% serum and suspended in PBS (phosphate-buffered saline) so that the concentration of the cells became 3 x 10⁷/ml, and 100 µl of the resulting suspension was transplanted to the central part of the right side of the abdomens of Balb/c nu/nu mice (9 weeks old, male) with an injection syringe (25G needle). The tumor size was determined on the 17th day. The mice were divided into groups so that the mean tumor size of each groups was 96 to 97 mm³. Then administration of the drug prepared by the following method was started. The tumor size was determined with a caliper in terms of the major axis (a) and minor axis (b), and calculated from the following formula: 0.5 x a x b².
A 5% glucose solution was added to an inclusion compound of Compound A and maltosyl-β-cyclodextrin obtained in Reference Example 1 to adjust a dosage volume to 10 µl/g body weight of each mouse, and the resulting solution was administered to dorsal subcutaneous parts of mice.
The injection Randa (trade name, manufactured by Nippon Kayaku K.K., Japan) was used as cisplatin, dissolved in saline, adjusted to a dosage volume of 10 µl/g body weight of each mouse, and intraperitoneally administered to mice.
In the case of administration of Compound A alone and cisplatin alone, the first administration was carried out on the 17th day after the transplantation, and thereafter administrations were carried out at one-week intervals. In the case of concomitant administration of Compound A and cisplatin, cisplatin was administered on the 17th day after the transplantation, and Compound A was administered on the 21th day after the transplantation. Thereafter, each drug was administered at one-week intervals.
Tumor growth inhibitory activity was evaluated on the 49th day after the transplantation as follows. Each tumor size was determined on the 49th day, the tumor size on the day of the first administration was subtracted from the size on the 49th day, and the ratio (T/C%) of the tumor size of the drug administration group (T) to that of the control group (C) was calculated. The dose of the drug is indicated in terms of the weight of the drug (mg/kg body weight) per administration.
Mice bearing PC-3 cancer cells were prepared according to the same manner as that in Experiment 1. The tumor size was determined on the 17th day after the transplantation. Mice were divided into groups so that the average tumor size of each group was 108 to 109 mm³. Then drug administration was started. Preparation of the drug, determination of the tumor size, evaluation of tumor growth inhibitory activity, etc., were carried out according to the methods of Experiment 1.
In the case of administration of Compound A alone and cisplatin alone, the first administration was carried out on the 17th day after the transplantation, and thereafter administrations were carried out at one-week intervals.
The following three combinations of the drugs were administered. Cisplatin and Compound A were administered on the 17th day and 21th day after the transplantation, respectively, and thereafter each drug was administered at one-week intervals. These administrations are hereinafter referred to as Combination 1. Compound A and cisplatin were administered on the 17th day and 21th day after the transplantation, respectively, and thereafter each drug was administered at one-week intervals. These administrations are hereinafter referred to as Combination 2. Compound A and cisplatin were administered simultaneously on the 17th day after the transplantation, and thereafter each drug was administered at on-week intervals. These administrations are hereinafter referred to as Combination 3. […]

[1] = cisplatin 4 mg/kg i.p., evaluated 49th day
[2] = Experiment 1, s.c. PC-3, Compound A 100 mg/kg s.c., cisplatin 4 mg/kg i.p., evaluated 49th day
[3] = cisplatin 5 mg/kg i.p., evaluated 42th day
[4] = Experiment 2, s.c. PC-3, Compound A 100 mg/kg s.c., cisplatin 5 mg/kg i.p., evaluated 42th day

In the case of `N.N.[Cl][Pt][Cl]` [Cisplatin, cisplatin], the “Tumor size gain (mm³) mean±SD” value [1] was 230±182 mm³, the “Tumor size ratio (T/C %)” value [2] was 19% and the “Tumor size gain (mm³) means±SD” value [3] was 345±163 mm³. The “Tumor size ratio (T/C %)” value [4] was 26%.
With “6-O-(N-chloroacetylcarbamoyl)fumagillol [Compound A]” the “Tumor size gain (mm³) mean±SD” value [1] was 591±242 mm³, the “Tumor size ratio (T/C %)” value [2] was 49% and the “Tumor size gain (mm³) means±SD” value [3] was 400±126 mm³. For the same molecule, the “Tumor size ratio (T/C %)” value [4] was 30%.
